Experimental data as given in patent US10564162B2, “Predictive biomarkers” (BIONOMICS LIMITED, priority 2014, dated 2020).

Experiments:
[1] = tested on: tumour endothelial cells (activated) and normal endothelial cells (quiescent); assay: Potency against activated versus quiescent endothelial cells; format: cell-based
tubulin = assay: Tubulin polymerisation inhibition; format: biochemical
[2] = tested on: Serum Amyloid P-Component (SAP); assay: Disruptor-1 trial: plasma SAP level post versus pre BNC105P infusion (Human CustomMAP, Luminex); format: in vivo
Excerpt: (§1) The objective of the study was to determine the response rate of patients administered BNC105P (vascular disrupting agent) in combination with everolimus (mTOR inhibitor) in patients who had progressed from prior tyrosine kinase inhibitor therapy. In addition, the present inventors determined the improvement in 6-months progression free survival (PFS) with the addition of BNC105P to everolimus (Afinitor). A control group of patients received everolimus alone.
(§2) Patients in the BNC105P in combination with everolimus study group (the “combination arm”) were administered 10 mg oral everolimus daily. On days 1 and 8 of the 21 day cycle period, the patients were administered 16 mg/m^2 BNC105P, which had been determined to be the maximum tolerated dose, by intravenous infusion over a 10 minute period (FIG. 1). Treatment was continued until disease progressed, intolerable toxicity became apparent, or until consent was withdrawn. A control group of patients were administered with everolimus alone.
(§3) Human EDTA plasma samples were taken from patients to quantitatively measure the concentration of 56 analytes from the Human CustomMAP at Myriad RBM (MRBM). […]
(§4) The biomarker levels at each time and the change in biomarker levels were examined. The mean change from pre- to post-infusion was calculated as the mean of C1D1 pre-infusion minus C1D1 post-infusion. […]

[3] = tested on: Sex Hormone-Binding Globulin (SHBG); assay: Disruptor-1 trial: plasma SHBG level post versus pre BNC105P infusion (Human CustomMAP, Luminex); format: in vivo
Excerpt: as §1, §2, §3, §4

Myoglobin (MB) = assay: Disruptor-1 trial: plasma Myoglobin level post versus pre BNC105P infusion (Human CustomMAP, Luminex); format: in vivo
Excerpt: as §1, §2, §3, §4

[4] = tested on: Matrix Metalloproteinase-9 (MMP-9); assay: Disruptor-1 trial: plasma MMP-9 level post versus pre BNC105P infusion (Human CustomMAP, Luminex); format: in vivo
Excerpt: as §1, §2, §3, §4

Stem Cell Factor (SCF) = assay: Disruptor-1 trial: plasma SCF level post versus pre BNC105P infusion (Human CustomMAP, Luminex); format: in vivo
Excerpt: as §1, §2, §3, §4

[5] = Maximum tolerated dose of BNC105P in patients; format: in vivo, Human; settings: intravenous infusion over 10 minutes, days 1 and 8 of 21 day cycle, with 10 mg oral everolimus daily
Description: as §2

[6] = plasma, renal cell carcinoma patients, 16 mg/m^2 BNC105P i.v. infusion plus 10 mg oral everolimus daily, post versus pre infusion
[7] = post/baseline plasma ratio after BNC105P, patients split at the median

| SMILES | selectivity between activated (tumour) and quiescent (normal) endothelial cells (in words) [1] | tubulin polymerisation inhibition (in words) (tubulin) | Median Post/Baseline Ratio, SAP [2, 6] | Biomarker change Ratio Range associated with better PFS, SAP [2, 7] | Median Post/Baseline Ratio, SHBG [3, 6] | Biomarker change Ratio Range associated with better PFS, SHBG [3, 7] | Median Post/Baseline Ratio, Myoglobin (Myoglobin (MB); [6]) | Biomarker change Ratio Range associated with better PFS, Myoglobin (Myoglobin (MB); [7]) | Median Post/Baseline Ratio, MMP-9 [4, 6] | Biomarker change Ratio Range associated with better PFS, MMP-9 [4, 7] | Median Post/Baseline Ratio, SCF (Stem Cell Factor (SCF); [6]) | Biomarker change Ratio Range associated with better PFS, SCF (Stem Cell Factor (SCF); [7]) | maximum tolerated dose [5] |
| --- | --- | --- | --- | --- | --- | --- | --- | --- | --- | --- | --- | --- | --- |
| COc1ccc(/C=C\c2cc(OC)c(OC)c(OC)c2)cc1O [Combretastatin A4, reference compound] | equally potent against quiescent and activated endothelial cells | – | – | – | – | – | – | – | – | – | – | – | – |
| COc1cc(C(=O)c2c(C)oc3c(O)c(OC)ccc23)cc(OC)c1OC [III, 2-methyl-7-hydroxy-3-(3,4,5-trimethoxybenzoyl)-6-methoxybenzofuran] | show selectivity towards tumor endothelial cells (activated) over normal endothelial cells (quiescent) | potent tubulin polymerisation inhibitors | – | – | – | – | – | – | – | – | – | – | – |
| COc1cc(C(=O)c2c(C)oc3c(OP(=O)([O-])[O-])c(OC)ccc23)cc(OC)c1OC.[Na+].[Na+] [BNC105P, disodium [6-methoxy-2-methyl-3-(3,4,5-trimethoxybenzoyl)-1-benzofuran-7-yl]phosphate] | – | – | 0.95 | ≤0.95 | 0.92 | ≤0.92 | 0.935 | ≤0.935 | 1.060 | >1.060 | 1.0 | >1 | 16 mg/m^2 |
